How the values were obtained:
[1] = Aqueous solubility of the drug substance; assay type: physicochemical; conditions: water
Description: Preparation of the clinical dosage form consists of a dry fill of the drug substance into gelatin capsules with no excipients. For the Phase II study, capsules with the salt of Formula (II)(200 mg or 400 mg, free base weight) are machine-filled and packaged in blister strips with aluminum foil backing, which are stored in cardboard boxes. Matching placebo capsules are also available in the same packaging.

[2] = Stability study of capsules filled with 200 mg in blister strips; assay type: physicochemical; conditions: 200 mg (free base weight) capsules in PVC-PE-PVdC/Alu, ambient 15-25° C./20-60% RH
SYT1 = assay: Phase IIa CSF pre-synaptic biomarker SYT1; assay type: in vivo, human
Excerpt: (§1) CSF samples were obtained at screening Visit and final Visit via lumbar puncture to determine levels of tau, p-tau, Aβ40, Aβ42 and AChE activity as an initial set of CSF biomarkers. Aliquots of CSF were made available for emerging CSF biomarker methods such as measurement of additional biomarkers including neurofilaments light chain, neurogranin, SNAP-25, synaptotagmin, YKL-40, TREM2, tau oligomers and for measurement of drug level in selected patients based on the time period between last dose of drug and CSF sampling (FIG. 25 and FIG. 58).
Baseline CSF samples are obtained prior to administration via lumbar puncture. These samples are used to determine levels of tau, p-tau, Aβ40, Aβ42, AChE, neurofilament light chain, SNAP-25, synaptotagmin-1, neurogranin, sTREM, and YKL-40. Aliquots of CSF are also made available for emerging CSF biomarker methods such as measurement of tau oligomers and for measurement of drug level in selected patients based on time period between last dose of the salt of Formula (II) and CSF sampling. […] Many of these biomarkers can also be measured in blood or plasma. The change in values over the time period from pre-treatment to post-treatment are of particular importance. […]

YKL-40 = assay: Phase IIa CSF glial biomarker YKL-40; assay type: in vivo, human
Excerpt: as §1
Baseline CSF samples are obtained prior to administration via lumbar puncture. These samples are used to determine levels of tau, p-tau, Aβ40, Aβ42, AChE, neurofilament light chain, SNAP-25, synaptotagmin-1, neurogranin, sTREM, and YKL-40. Aliquots of CSF are also made available for emerging CSF biomarker methods such as measurement of tau oligomers and for measurement of drug level in selected patients based on time period between last dose of the salt of Formula (II) and CSF sampling. […] Many of these biomarkers can also be measured in blood or plasma. The change in values over the time period from pre-treatment to post-treatment are of particular importance. […] Absolute levels at single time points of neurofilament light chain, SNAP-25, synaptotagmin-1, neurogranin, sTREM, and YKL-40 in CSF or blood or plasma are of less value given differences in assay techniques and wide variation in absolute levels within normal subjects and within and across AD subjects. In contrast, absolute levels of Aβ42 and 40 at baseline are useful biomarkers indicating the presence of amyloid pathology as low levels of Aβ42 and 40 at a given time point are consistent with amyloid pathology.

[3] = tested on: patients with mild to moderate Alzheimer's disease; assay: Phase IIa brain glucose metabolism (18F-FDG-PET); assay type: in vivo, human; conditions: for FDG-PET voxel (MCS) analysis, dose comparison: 400 mg versus 200 mg versus placebo
Description: The specific ^18F FDG-PET scan for early detection of AD is conducted at the first and final visits. Quantitative and qualitative estimates of the cerebral glucose rate may be done by using FDG-PET as evident metabolic reduction is already present in patients at early stages of Alzheimer's disease. ^18F FDG-PET scanning is an imaging biomarker for synaptic function. Analyses include anatomical, statistical or voxel-based regions of interest.
FDG-PET using statistical ROI measures derived from ADNI as described in the Chen et al. paper.
Areas showing less decline are highlighted in yellow. It is notable that these areas are relevant to areas that degeneration in AD. […] This method makes possible analysis of FDG-PET signal in a common three-dimensional sampling space with the MRI analysis for each subject thereby enhancing accuracy of FDG-PET analysis and allowing the combination of the two modalities for further analyses and the assessment of the spatial relationship between structural and functional degeneration over time. […] For this analysis, the drug treatment group contains subjects treated with either 200 or 400 mg doses.
FIGS. 56A-56C show FDG PET using group x time interaction patterns. In FIGS. 56A-56C, contrast estimate plots show the magnitude and direction of the interaction effects observed in the flexible factorial GLM.
Therefore, if the actual observed ratio of t-values is close to equivalent in the input map at a given p and k threshold, the MCS ratio and p-value will tend to support the null hypothesis of no drug effect.

CC[C@H](C)[C@H](N)C(=O)NCCN1CCOCC1 [LM11A-31-BHS, Tris[(2S,3S)-2-amino-3-methyl-N-(2-morpholinoethyl)pentanamide] tetra(monohydrogensulfate), monosulfate]
solubility [1]: > 30 mg/mL | drug stability in capsules [2]: good drug stability | CSF SYT1 levels, drug dose analysis (SYT1; 200 and 400 mg doses): only nominal reductions below baseline at both doses | CSF SYT1 change in the drug group (SYT1; combined drug group, 6 months, p=0.06): trend for a decrease | CSF YKL40 significant increase seen with placebo, drug dose analysis (YKL-40; 200 and 400 mg doses): no longer present at the 200 and 400 mg doses | drug effect in slowing or inhibiting the pathological glial response (YKL-40), younger (<72 years) versus older (>=72 years) (YKL-40; annual percent change (APC), 6-month trial period): greater than that found in the older group | CSF YKL-40 increase in the drug group (YKL-40; combined drug group, difference between placebo and drug groups p=0.03): This increase was not detected in the drug group | FDG-PET voxel (MCS) analysis, dose comparison [3]: 400 mg effect is significant and significantly greater than the 200 mg effect | FDG-PET voxel (MCS) analysis, dose comparison ([3]; listed as LM11A-31): The effect at the 400 mg dose is higher than that at the 200 mg dose | FDG-PET statistical ROI decline, drug versus placebo ([3]; combined drug group, 6 month period): trend to less decline | cerebral glucose rate compared to placebo or no treatment ([3]; daily treatment): reduction in the extent of ongoing decrease in cerebral glucose rate | FDG-PET loss of SUVR signal, dose analysis ([3]; flexible factorial GLM, p<0.05 and cluster size >100): significant effect at both the 200 and 400 mg doses in slowing loss of SUVR signal | FDG-PET sROI, dose comparison ([3]; not statistically significant): greater trend is observed at 400 compared to the 200 mg dose
